Source: article PMC3399817 (PLoS ONE, 2012)

Legend:
Assay in all cases: KINOMEscan
Assay type in all cases: binding
BMPR1B = target: T1, BMPR1B (Homo sapiens, UniProt O00238); settings: 1 uM
T1 construct: purchased Ambit KINOMEscan (DiscoverX)
Summary of the method: (§1)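 Binding assay, no enzymatic read-out; all compounds tested at 1 μM to find kinases whose substrate binding they inhibit.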

RIPK2 = target: T2, RIPK2 (Homo sapiens, UniProt O43353); settings: RIPK2, 1 uM
T2 construct: purchased Ambit KINOMEscan (DiscoverX)
Summary of the method: as §1

ACVRL1 = target: T3, ACVRL1 (Homo sapiens, UniProt P37023); settings: ACVRL1, 1 uM
T3 construct: purchased Ambit KINOMEscan (DiscoverX)
Summary of the method: as §1

DCAMKL3 = target: T4, DCAMKL3 (Homo sapiens, UniProt Q9C098); settings: DCAMKL3, 1 uM
T4 construct: purchased Ambit KINOMEscan (DiscoverX)
Summary of the method: as §1

NEK9 = target: T5, NEK9 (Homo sapiens, UniProt Q8TD19); settings: NEK9, 1 uM
T5 construct: purchased Ambit KINOMEscan (DiscoverX)
Summary of the method: as §1

ULK3 = target: T6, ULK3 (Homo sapiens, UniProt Q6PHR2); settings: ULK3, 1 uM
T6 construct: purchased Ambit KINOMEscan (DiscoverX)
Summary of the method: as §1

ERK8 = target: T7, ERK8 (Homo sapiens, UniProt Q8TD08); settings: ERK8, 1 uM
T7 construct: purchased Ambit KINOMEscan (DiscoverX)
Summary of the method: as §1

YSK1 = target: T8, YSK1 (Homo sapiens, UniProt O00506); settings: YSK1, 1 uM
T8 construct: purchased Ambit KINOMEscan (DiscoverX)
Summary of the method: as §1

DAPK3 = target: T9, DAPK3 (Homo sapiens, UniProt O43293); settings: DAPK3, 1 uM
T9 construct: purchased Ambit KINOMEscan (DiscoverX)
Summary of the method: as §1

CAMKK2 = target: T10, CAMKK2 (Homo sapiens, UniProt Q96RR4); settings: CAMKK2, 1 uM
T10 construct: purchased Ambit KINOMEscan (DiscoverX)
Summary of the method: as §1

DLK = target: T11, DLK (Homo sapiens, UniProt Q12852); settings: 1 uM
T11 construct: purchased Ambit KINOMEscan (DiscoverX)
Summary of the method: as §1

MYLK2 = target: T12, MYLK2 (Homo sapiens, UniProt Q9H1R3); settings: MYLK2, 1 uM
T12 construct: purchased Ambit KINOMEscan (DiscoverX)
Summary of the method: as §1

VEGFR2 = target: T13, VEGFR2 (Homo sapiens, UniProt P35968); settings: VEGFR2, 1 uM
T13 construct: purchased Ambit KINOMEscan (DiscoverX)
Summary of the method: as §1

MKNK1 = target: T14, MKNK1 (Homo sapiens, UniProt Q9BUB5); settings: MKNK1, 1 uM
T14 construct: purchased Ambit KINOMEscan (DiscoverX)
Summary of the method: as §1

PIP5K1A = target: T15, PIP5K1A (Homo sapiens, UniProt Q99755); settings: 1 uM
T15 construct: purchased Ambit KINOMEscan (DiscoverX)
Summary of the method: as §1

IRAK3 = target: T16, IRAK3 (Homo sapiens, UniProt Q9Y616); settings: IRAK3, 1 uM
T16 construct: purchased Ambit KINOMEscan (DiscoverX)
Summary of the method: as §1

MRCKA = target: T17, MRCKA (Homo sapiens, UniProt Q5VT25); settings: 1 uM
T17 construct: purchased Ambit KINOMEscan (DiscoverX)
Summary of the method: as §1

HIPK4 = target: T18, HIPK4 (Homo sapiens, UniProt Q8NE63); settings: HIPK4, 1 uM
T18 construct: purchased Ambit KINOMEscan (DiscoverX)
Summary of the method: as §1

RIPK4 = target: T19, RIPK4 (Homo sapiens, UniProt P57078); settings: RIPK4, 1 uM
T19 construct: purchased Ambit KINOMEscan (DiscoverX)
Summary of the method: as §1

CAMK1 = target: T20, CAMK1 (Homo sapiens, UniProt Q14012); settings: CAMK1, 1 uM
T20 construct: purchased Ambit KINOMEscan (DiscoverX)
Summary of the method: as §1

MERTK = target: T21, MERTK (Homo sapiens, UniProt Q12866); settings: 1 uM
T21 construct: purchased Ambit KINOMEscan (DiscoverX)
Summary of the method: as §1

JNK1 = target: T22, JNK1 (Homo sapiens, UniProt P45983); settings: JNK1, 1 uM
T22 construct: purchased Ambit KINOMEscan (DiscoverX)
Summary of the method: as §1

PDPK1 = target: T23, PDPK1 (Homo sapiens, UniProt O15530); settings: PDPK1, 1 uM
T23 construct: purchased Ambit KINOMEscan (DiscoverX)
Summary of the method: as §1

QSK = target: T24, QSK (Homo sapiens, UniProt Q9Y2K2); settings: 1 uM
T24 construct: purchased Ambit KINOMEscan (DiscoverX)
Summary of the method: as §1

BRAF(V600E) = target: T25, BRAF(V600E) (Homo sapiens, UniProt P15056, V600E); settings: 1 uM
T25 construct: purchased Ambit KINOMEscan (DiscoverX)
Summary of the method: as §1

PAK4 = target: T26, PAK4 (Homo sapiens, UniProt O96013); settings: PAK4, 1 uM
T26 construct: purchased Ambit KINOMEscan (DiscoverX)
Summary of the method: as §1

YANK3 = target: T27, YANK3 (Homo sapiens, UniProt Q86UX6); settings: YANK3, 1 uM
T27 construct: purchased Ambit KINOMEscan (DiscoverX)
Summary of the method: as §1

PKMYT1 = target: T28, PKMYT1 (Homo sapiens, UniProt Q99640); settings: PKMYT1, 1 uM
T28 construct: purchased Ambit KINOMEscan (DiscoverX)
Summary of the method: as §1

T14 sequence (Q9BUB5 whole entry): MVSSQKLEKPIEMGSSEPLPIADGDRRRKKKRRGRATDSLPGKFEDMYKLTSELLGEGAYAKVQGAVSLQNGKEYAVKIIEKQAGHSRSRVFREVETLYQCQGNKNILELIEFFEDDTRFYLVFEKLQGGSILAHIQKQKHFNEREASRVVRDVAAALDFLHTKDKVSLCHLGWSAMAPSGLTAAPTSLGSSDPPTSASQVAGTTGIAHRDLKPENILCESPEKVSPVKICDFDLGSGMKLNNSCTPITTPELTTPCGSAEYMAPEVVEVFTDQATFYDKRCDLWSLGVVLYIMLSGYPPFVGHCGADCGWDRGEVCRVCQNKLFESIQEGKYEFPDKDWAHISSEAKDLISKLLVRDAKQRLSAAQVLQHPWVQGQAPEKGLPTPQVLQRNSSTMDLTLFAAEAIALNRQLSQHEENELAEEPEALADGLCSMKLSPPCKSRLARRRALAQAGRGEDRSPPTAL
T10 sequence (Q96RR4 whole entry): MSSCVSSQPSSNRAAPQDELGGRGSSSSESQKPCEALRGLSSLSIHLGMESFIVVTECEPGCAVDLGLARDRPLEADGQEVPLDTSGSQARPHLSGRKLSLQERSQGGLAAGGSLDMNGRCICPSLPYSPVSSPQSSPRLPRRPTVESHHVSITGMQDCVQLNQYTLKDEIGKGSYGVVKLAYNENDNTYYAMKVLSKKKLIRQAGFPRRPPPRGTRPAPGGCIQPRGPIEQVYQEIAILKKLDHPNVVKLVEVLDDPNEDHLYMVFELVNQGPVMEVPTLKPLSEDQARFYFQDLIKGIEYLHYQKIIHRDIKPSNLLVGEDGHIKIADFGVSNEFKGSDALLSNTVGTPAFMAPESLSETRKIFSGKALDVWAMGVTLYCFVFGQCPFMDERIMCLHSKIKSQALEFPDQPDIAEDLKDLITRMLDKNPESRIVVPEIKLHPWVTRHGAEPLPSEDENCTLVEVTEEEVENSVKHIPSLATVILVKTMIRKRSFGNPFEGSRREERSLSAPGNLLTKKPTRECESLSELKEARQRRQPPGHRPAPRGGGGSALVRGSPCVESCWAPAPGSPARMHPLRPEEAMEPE
T15 sequence (Q99755 whole entry): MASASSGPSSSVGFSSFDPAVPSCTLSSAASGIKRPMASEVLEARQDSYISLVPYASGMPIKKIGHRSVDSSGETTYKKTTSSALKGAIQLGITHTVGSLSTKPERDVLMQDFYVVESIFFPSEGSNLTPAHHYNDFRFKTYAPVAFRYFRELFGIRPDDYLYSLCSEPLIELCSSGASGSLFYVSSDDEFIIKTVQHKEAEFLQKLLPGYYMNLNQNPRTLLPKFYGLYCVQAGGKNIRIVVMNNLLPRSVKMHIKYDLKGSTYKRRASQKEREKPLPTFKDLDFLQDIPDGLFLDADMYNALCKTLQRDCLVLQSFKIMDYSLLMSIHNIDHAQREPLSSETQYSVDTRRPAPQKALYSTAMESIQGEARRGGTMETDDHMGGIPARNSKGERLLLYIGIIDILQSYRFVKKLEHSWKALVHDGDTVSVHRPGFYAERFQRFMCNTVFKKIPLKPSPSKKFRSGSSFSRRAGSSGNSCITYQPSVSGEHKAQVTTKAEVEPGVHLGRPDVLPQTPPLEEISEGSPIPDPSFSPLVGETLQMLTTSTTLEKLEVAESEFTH
T1 sequence (O00238 14-502): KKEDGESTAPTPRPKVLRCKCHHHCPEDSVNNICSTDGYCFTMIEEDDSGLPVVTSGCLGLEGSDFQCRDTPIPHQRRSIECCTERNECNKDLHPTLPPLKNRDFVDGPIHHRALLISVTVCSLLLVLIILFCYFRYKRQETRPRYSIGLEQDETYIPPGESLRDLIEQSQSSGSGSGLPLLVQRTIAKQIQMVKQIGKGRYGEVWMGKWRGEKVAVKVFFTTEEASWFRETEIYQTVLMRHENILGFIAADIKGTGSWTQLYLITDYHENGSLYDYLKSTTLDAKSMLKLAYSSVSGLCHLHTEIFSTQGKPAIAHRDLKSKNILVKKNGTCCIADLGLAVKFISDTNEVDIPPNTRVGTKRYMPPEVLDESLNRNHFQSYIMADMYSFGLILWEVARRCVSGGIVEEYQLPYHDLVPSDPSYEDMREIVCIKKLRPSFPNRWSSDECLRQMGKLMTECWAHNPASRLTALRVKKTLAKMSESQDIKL
T11 sequence (Q12852 whole entry): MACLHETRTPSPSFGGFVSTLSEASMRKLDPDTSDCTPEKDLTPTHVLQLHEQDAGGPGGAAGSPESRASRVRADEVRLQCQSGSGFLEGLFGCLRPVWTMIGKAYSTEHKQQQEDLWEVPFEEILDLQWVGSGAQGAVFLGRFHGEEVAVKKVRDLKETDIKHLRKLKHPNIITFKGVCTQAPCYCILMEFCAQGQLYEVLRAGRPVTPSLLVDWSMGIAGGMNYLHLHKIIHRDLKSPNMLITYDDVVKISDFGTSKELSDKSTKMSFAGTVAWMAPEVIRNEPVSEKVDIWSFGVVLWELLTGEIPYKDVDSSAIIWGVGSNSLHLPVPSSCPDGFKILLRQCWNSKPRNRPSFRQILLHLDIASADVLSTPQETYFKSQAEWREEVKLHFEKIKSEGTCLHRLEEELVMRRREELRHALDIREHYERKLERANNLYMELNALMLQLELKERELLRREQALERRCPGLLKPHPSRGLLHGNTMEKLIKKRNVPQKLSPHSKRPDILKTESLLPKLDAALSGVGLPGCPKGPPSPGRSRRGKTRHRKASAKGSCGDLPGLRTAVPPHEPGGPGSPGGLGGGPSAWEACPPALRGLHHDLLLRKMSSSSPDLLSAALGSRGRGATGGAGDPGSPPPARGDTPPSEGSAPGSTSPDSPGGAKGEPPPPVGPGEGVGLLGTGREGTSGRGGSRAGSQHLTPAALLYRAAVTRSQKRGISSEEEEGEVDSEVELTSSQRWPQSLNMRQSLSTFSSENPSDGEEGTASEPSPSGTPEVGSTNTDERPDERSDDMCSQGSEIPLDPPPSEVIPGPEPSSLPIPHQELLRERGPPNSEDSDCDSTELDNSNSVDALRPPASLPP
T23 sequence (O15530 whole entry): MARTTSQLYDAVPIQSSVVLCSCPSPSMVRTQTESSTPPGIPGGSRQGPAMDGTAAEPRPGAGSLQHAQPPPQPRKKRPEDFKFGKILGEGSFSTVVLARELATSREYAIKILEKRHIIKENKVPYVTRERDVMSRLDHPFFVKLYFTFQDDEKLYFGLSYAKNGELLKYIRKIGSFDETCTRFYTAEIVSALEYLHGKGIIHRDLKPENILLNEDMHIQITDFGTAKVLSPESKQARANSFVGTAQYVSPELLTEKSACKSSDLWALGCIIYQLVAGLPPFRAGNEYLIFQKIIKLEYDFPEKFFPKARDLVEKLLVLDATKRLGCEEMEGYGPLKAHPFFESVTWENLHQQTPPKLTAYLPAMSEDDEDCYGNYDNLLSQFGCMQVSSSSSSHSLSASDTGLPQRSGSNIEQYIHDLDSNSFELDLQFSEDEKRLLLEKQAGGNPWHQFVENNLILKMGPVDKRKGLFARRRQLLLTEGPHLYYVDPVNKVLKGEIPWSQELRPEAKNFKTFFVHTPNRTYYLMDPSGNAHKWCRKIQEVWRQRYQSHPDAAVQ
T27 sequence (Q86UX6 whole entry): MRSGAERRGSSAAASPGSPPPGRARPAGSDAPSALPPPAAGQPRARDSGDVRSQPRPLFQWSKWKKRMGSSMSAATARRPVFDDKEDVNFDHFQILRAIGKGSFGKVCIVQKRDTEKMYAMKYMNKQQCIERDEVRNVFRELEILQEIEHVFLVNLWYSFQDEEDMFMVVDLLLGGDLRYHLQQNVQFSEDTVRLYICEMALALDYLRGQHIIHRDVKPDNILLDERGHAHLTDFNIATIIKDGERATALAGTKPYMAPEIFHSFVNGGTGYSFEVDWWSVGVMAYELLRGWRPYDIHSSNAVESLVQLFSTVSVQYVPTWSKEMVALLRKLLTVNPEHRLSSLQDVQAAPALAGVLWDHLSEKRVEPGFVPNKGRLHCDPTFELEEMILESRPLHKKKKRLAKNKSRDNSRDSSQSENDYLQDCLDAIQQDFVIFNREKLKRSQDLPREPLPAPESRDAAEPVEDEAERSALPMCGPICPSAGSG
T2 sequence (O43353 whole entry): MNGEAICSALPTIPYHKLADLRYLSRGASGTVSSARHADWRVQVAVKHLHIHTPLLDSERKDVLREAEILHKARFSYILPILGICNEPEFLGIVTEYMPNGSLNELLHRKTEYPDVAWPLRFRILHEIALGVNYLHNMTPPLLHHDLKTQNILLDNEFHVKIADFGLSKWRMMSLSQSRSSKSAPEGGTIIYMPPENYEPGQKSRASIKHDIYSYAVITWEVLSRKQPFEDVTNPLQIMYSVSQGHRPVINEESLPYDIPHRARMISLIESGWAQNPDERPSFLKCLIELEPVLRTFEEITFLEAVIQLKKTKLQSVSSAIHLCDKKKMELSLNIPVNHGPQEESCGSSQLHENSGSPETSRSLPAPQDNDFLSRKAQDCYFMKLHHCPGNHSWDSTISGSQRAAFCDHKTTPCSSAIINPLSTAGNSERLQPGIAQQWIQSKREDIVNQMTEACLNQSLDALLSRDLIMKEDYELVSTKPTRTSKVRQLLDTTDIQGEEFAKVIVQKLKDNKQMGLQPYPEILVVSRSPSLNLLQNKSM
T9 sequence (O43293 whole entry): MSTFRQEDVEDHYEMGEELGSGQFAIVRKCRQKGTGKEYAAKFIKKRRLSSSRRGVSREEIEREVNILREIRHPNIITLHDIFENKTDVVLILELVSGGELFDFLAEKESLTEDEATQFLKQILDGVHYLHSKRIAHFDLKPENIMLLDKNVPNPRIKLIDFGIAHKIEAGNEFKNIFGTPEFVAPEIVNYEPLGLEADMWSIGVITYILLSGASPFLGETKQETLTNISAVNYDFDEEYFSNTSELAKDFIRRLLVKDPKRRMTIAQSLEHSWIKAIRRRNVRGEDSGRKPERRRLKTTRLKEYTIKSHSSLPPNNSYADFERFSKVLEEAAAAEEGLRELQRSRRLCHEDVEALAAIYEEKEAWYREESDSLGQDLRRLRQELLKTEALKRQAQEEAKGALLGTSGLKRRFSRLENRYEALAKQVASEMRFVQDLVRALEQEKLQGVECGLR

Row | SMILES | % binding compared to no inhibitor control (BMPR1B) [%] | % binding compared to no inhibitor control (RIPK2) [%] | % binding compared to no inhibitor control (ACVRL1) [%] | % binding compared to no inhibitor control (DCAMKL3) [%] | % binding compared to no inhibitor control (NEK9) [%] | % binding compared to no inhibitor control (ULK3) [%] | % binding compared to no inhibitor control (ERK8) [%] | % binding compared to no inhibitor control (YSK1) [%] | % binding compared to no inhibitor control (DAPK3) [%] | % binding compared to no inhibitor control (CAMKK2) [%] | % binding compared to no inhibitor control (DLK) [%] | % binding compared to no inhibitor control (MYLK2) [%] | % binding compared to no inhibitor control (VEGFR2) [%] | % binding compared to no inhibitor control (MKNK1) [%] | % binding compared to no inhibitor control (PIP5K1A) [%] | % binding compared to no inhibitor control (IRAK3) [%] | % binding compared to no inhibitor control (MRCKA) [%] | % binding compared to no inhibitor control (HIPK4) [%] | % binding compared to no inhibitor control (RIPK4) [%] | % binding compared to no inhibitor control (CAMK1) [%] | further results
1 | COc1ccc(-c2cc3nccn3c(Nc3ncccc3C(N)=O)n2)cc1OC.Cl.Cl [BAY61-3606, 2-[7-(3,4-dimethoxyphenyl)-imidazo [1,2-c]pyrimidin-5-ylamino] nicotinamide dihydrochloride, reference compound] | 77 | 70 | 100 | 100 | 90 | 51 | 92 | 53 | 71 | 51 | 87 | 86 | 94 | 52 | 64 | 16 | 83 | 29 | 19 | 62 | % binding compared to no inhibitor control (MERTK): 78%; % binding compared to no inhibitor control (JNK1): 18%; % binding compared to no inhibitor control (PDPK1): 99%; % binding compared to no inhibitor control (QSK): 100%; % binding compared to no inhibitor control (BRAF(V600E)): 84%; % binding compared to no inhibitor control (PAK4): 85%; % binding compared to no inhibitor control (YANK3): 53%; % binding compared to no inhibitor control (PKMYT1): 88%
2 | COc1ccccc1Nc1nc(-c2ccc(OC)c(OC)c2)cc2nccn12 [BAY derivative 6] | 100 | 100 | 100 | 100 | 100 | 100 | 98 | 82 | 100 | 100 | 100 | 89 | 100 | 72 | 86 | 57 | 79 | 98 | 93 | 100 | % binding compared to no inhibitor control (MERTK): 100%; % binding compared to no inhibitor control (JNK1): 95%; % binding compared to no inhibitor control (PDPK1): 100%; % binding compared to no inhibitor control (QSK): 87%; % binding compared to no inhibitor control (BRAF(V600E)): 100%; % binding compared to no inhibitor control (PAK4): 90%; % binding compared to no inhibitor control (YANK3): 100%; % binding compared to no inhibitor control (PKMYT1): 95%
